{
  "source": "patent US9134300B2",
  "about": "“Method for screening a drug in retinal tissue” (Research Foundation of the City University of New York, priority 2011, dated 2015)",
  "tested_on": "microtubules",
  "assay": "Time-lapse second-harmonic generation imaging of retinal nerve fibers following treatment with nocodazole",
  "set-up": "species or system rat",
  "conditions": "retinal nerve fiber layer of retinal flat-mount; perfusion with medium containing nocodazole and 0.4% DMSO; treatment period 90 minutes",
  "procedure": "Rat retinal flat-mounts were prepared from euthanized rats. The eyes were enucleated. A circumferential incision was made around the limbus and the cornea, lens, and vitreous humor were removed. Several radial cuts were made in the eye cup. The retina was isolated from the retinal pigment epithelium and the sclera and transferred to buffered Ames' medium (Sigma-Aldrich), which was bubbled with 95% oxygen and 5% carbon dioxide, and maintained at 34° C. and pH 7.4. The sample was transferred to a perfusion chamber with a transparent bottom (Warner Instruments) within 15 minutes after euthanasia. The retina was placed on the microscope stage with the retinal nerve fiber layer side up. The speed of laminar flow was approximate 1 mL per min.\nImaging: Simultaneous second-harmonic generation microscopy and two-photon excitation fluorescence microscopy were performed to image the fresh retina. The excitation wavelength utilized short pulses from a mode-locked Ti: Sapphire laser source with a duration of 100 fs at 80-MHz repetition rate. The excitation wavelength was 785 nm, except for the experiments where two excitation wavelengths at 785 and 880 nm are compared. […]\nFluorescence was detected in the backward beam path, which included a set of spectral filters (Chroma Technology), and photomultiplier tube (PMT) detectors (Hamamatsu). […]",
  "data": [
    {"smiles": "COC(=O)Nc1nc2ccc(C(=O)c3cccs3)cc2[nH]1", "note": "[nocodazole]", "values": [
      {"measurement": "intensity of microtubule second-harmonic generation signal", "result": "significantly reduced"}
    ]}
  ]
}
